In patent publication US11071746B2, “Compositions and methods for protecting organs from ischemia/reperfusion injury associated with transplantation” (THE TRUSTEES OF THE UNIVERSITY OF PENNSYLVANIA, priority 2016, dated 2021):

Tests used:
[1] = LC/MS/MS drug levels in lung tissue, BALF and perfusate during ex vivo lung perfusion (EVLP); parameters: species or system human
Procedure: (§1) Donor lungs were offered to our lung-transplantation program through our local organ procurement organization (Gift of Life) and were de-identified. Donor lungs that met the entry criteria (i.e., non-transplantable) were retrieved, delivered to our center by means of standard cold-storage transport in a low-potassium dextran solution (Perfadex, Vitrolife), and perfused in the EVLP system for 3-6 hours. Lungs were considered suitable for transplantation if during EVLP the PO2:FIO2 ratio—that is, the partial pressure of oxygen ex vivo (PO2) to the fraction of inspired oxygen (FIO2)—was 350 mm Hg or more and if deterioration from baseline levels of all three physiological measurements (pulmonary vascular resistance, dynamic compliance, and peak inspiratory pressure) was less than 15% while the lungs were ventilated with the use of a tidal volume of 7 ml per kilogram of donor body weight and a rate of 7 breaths per minute during the perfusion period (FIG. 1)
(§2) Technique: The acellular EVLP technique has been described in detail elsewhere (Cypel et al., N Engl J Med. 2011 Apr. 14; 364(15):1431-40). After 3-6 hours of EVLP, the lungs were cooled to 4° C. over a period of 10 minutes. Thereafter, perfusion and ventilation were stopped (with FIO2 changed to 0.21 for the purpose of lung storage), and the trachea was clamped at full inspiration to maintain the lungs in a state of inflation. The lungs were then stored at 4° C. in Perfadex until transplantation.
LGM2605 (SDG) ACCUMULATES IN HUMAN LUNG TISSUES: Using LC/MS/MS analytical methodologies, we determined synthetic SDG (LGM2605) levels in left and right lung tissues, in bronchoalveolar lavage fluid (BALF) and perfusate fluid over multiple time points spanning from 30 minutes post aerosolized instillation of 200 mg drug/lung, to 360 minutes (FIG. 2). Of importance is that aerosolized SDG (LGM2605) (i.e, instilled in airways), leaks into the systemic circulation and can be detected in the perfusate for at least 240 minutes. Importantly, levels in lung tissue biopsies show a peak of drug by 120 minutes, persisting for up to 240 minutes. Additionally, levels in BALF persist beyond 360 min.

human donor lungs = assay: Ex vivo functional assessment (oxygenation, compliance) of EVLP human donor lungs; settings: aerosolized drug, EVLP #3 human lung
Procedure: as §1, §2
Ex Vivo Functional Assessment: For the functional assessment ex vivo, tidal volume was set at 10 ml per kilogram of donor body weight and 10 breaths per minute, with FIO2 at 1.0. Lung function was evaluated hourly during EVLP according to the following calculations: PO2=[left atrial PO2−pulmonary-artery PO2 (in mm Hg)], and pulmonary vascular resistance=[(pulmonary-artery pressure-left atrial pressure)×80]÷pulmonary-artery flow (in dynes·seconds·cm^−5), dynamic compliance (in milliliters per centimeter of water), and peak inspiratory pressure (in centimeters of water). […]

hemeoxygenase-1 (HO-1) = assay: qRT-PCR gene expression in EVLP lung tissues: HO-1; parameters: species or system human; settings: EVLP #4, 200 mg/lung instilled in right lung, vehicle in contralateral lung
Procedure: (§3) GENE EXPRESSION LEVEL OF THE NRF2-REGULATED STRESS RESPONSE ENZYME HO-1: In a separate study (EVLP #4), SDG (LGM2605) was instilled only in one lung (right) while vehicle control was instilled in the contralateral lung (FIG. 4). The concentration of the drug (200 mg/lung) was kept the same as above. […] A drop in the left lung may reflect action of SDG (LGM2605) on that lung through the perfusate (we have shown above that some of the drug appears into the systemic circulation).

NQO-1 = assay: qRT-PCR gene expression in EVLP lung tissues: NQO1; parameters: species or system human; settings: EVLP #4, treated lung vs vehicle-treated lung, 120' sampling time
Procedure: as §3
(§4) GENE EXPRESSION LEVELS OF THE NRF2-REGULATED ANTIOXIDANT ENZYMES NQO1 AND GSTM1 INCREASE IN HUMAN LUNG (EVLP) TISSUES TREATED WITH LGM2605 (SDG): Nrf2 is a transcription factor that regulates the expression of antioxidant and cytoprotective genes such as NQO-1 and GSTMu1. […] Our findings confirm that SDG boosts endogenous antioxidant defenses in human lung tissues during ischemia (FIG. 6).

GSTMu1 = assay: qRT-PCR gene expression in EVLP lung tissues: GSTM1; parameters: species or system human; settings: EVLP #4, treated lung vs vehicle-treated lung, 120' sampling time
Procedure: as §3, §4

IL-1β = assay: qRT-PCR gene expression in EVLP lung tissues: IL-1β; parameters: species or system human; settings: EVLP #4, treated right lung vs vehicle-treated lung
Procedure: as §3
(§5) Our findings confirm that SDG decreases inflammatory parameters in human lung tissues during ischemia.

IL-6 = assay: qRT-PCR gene expression in EVLP lung tissues: IL-6; parameters: species or system human; settings: EVLP #4, treated right lung vs vehicle-treated lung
Procedure: as §3, §5

COX-2 = assay: qRT-PCR gene expression in EVLP lung tissues: COX-2; settings: aerosolized instillation, human EVLP lung tissues
Procedure: as §3
GENE EXPRESSION LEVELS OF THE COX-2 (AN ENZYME PROMOTING INFLAMMATION AND PAIN) DECREASE IN HUMAN LUNG (EVLP) TISSUES TREATED WITH LGM2605 (SDG): Cyclo-oxygenease-2 is an enzyme responsible for the formation of prostanoids such as thromboxane and prostanglandins. Pharmacological inhibition of COX can provide relief from symptoms of inflammation and pain. […] A drop in the vehicle-treated lung may reflect action of the drug via the perfusate (systemic circulation—FIG. 8).

[2] = aerosolized instillation of 200 mg drug/lung, human EVLP lungs, lung tissue biopsies

## COc1cc(C[C@@H](CO[C@@H]2O[C@H](CO)[C@@H](O)[C@H](O)[C@H]2O)[C@H](CO[C@@H]2O[C@H](CO)[C@@H](O)[C@H](O)[C@H]2O)Cc2ccc(O)c(OC)c2)ccc1O [LGM2605, secoisolariciresinol diglucoside]
[1]; aerosolized instillation of 200 mg drug/lung, human EVLP lungs, BALF
  persistence of drug levels in BALF: > 360 min
[1]; [2]
  persistence of drug levels in lung tissue biopsies: up to 240 minutes
  time of peak of drug in lung tissue biopsies: ≤ 120 min
[1]; aerosolized instillation of 200 mg drug/lung, human EVLP lungs, perfusate
  time drug can be detected in the perfusate: at least 240 minutes
[1]; regardless of route of delivery (inhaled or intravenous)
  accumulation in lung: accumulates in lung
Human donor lungs
  dynamic compliance: improving
  static compliance: improving
Human donor lungs; improved from 200 before drug
  P/F ratio (oxygenation) after treatment: > 350
hemeoxygenase-1 (HO-1)
  HO-1 gene expression change: drop
NQO-1
  NQO-1 gene expression change: robust increase
GSTMu1
  GSTMu1 gene expression change: robust increase
IL-1β
  IL-1β gene expression change: significantly reduced
IL-6
  IL-6 gene expression change: significantly reduced
COX-2
  COX-2 gene expression change: blocks entirely
  time to entire block of COX-2 expression after instillation: ≤ 50 min
